Consider 2 compounds from patent US20140275259A1, “Direct Lipid to Membrane Drug Delivery” (APPLIED BIORESEARCH, INC., priority 2013, published 2014).

For orientation: Tmax means the time at which the peak concentration occurs. Broadly, the bioavailability is the share of a dose that reaches the circulation, judged against a reference dose that is usually intravenous. Broadly, the AUC is concentration integrated over time. In general, AUC(0-inf) refers to the area under the concentration-time curve extrapolated to infinity. Low values mean low exposure, high ones high exposure. By Cmax is commonly meant the maximum level reached in the sampled fluid or tissue.

Like-named read-outs stand apart in the source and are kept apart here.

For data set [1] the following is noted: aqueous composition containing MBK, pH 7.0 and pH 9.6, 5 hours. As for the experimental part: Cells in the digestive track, such as CACO-2 cells are typically used to model absorption in the small intestine. CACO-2 cells, developed by the Sloan-Kettering Institute from human epithelial colorectal adenocarcinoma cells, are widely used to predict drug absorption. […] permeability assay (PAMPA) uses an artificial cell membrane to model drug permeability. In either test, the drug is dissolved in an aqueous solution mimicking the target gastric fluid. The fluid is contacted with the membrane, and the passage of the drug through the membrane over a period of time is used to assess permeability.
PAMPA measures how quickly the drug can exit a water-solvated environment and pass through a cell membrane. Since most drugs are hydrophobic, it is expected that there will be significant absorption by the cells lining the digestive tract.

The conditions of data set [2]: rat; for Halflife / Tmax: mean.
The nature of the next data set: in vivo. The following applies: rat.
The conditions of data set [3]: dogs, rectal, aqueous solution; cited from earlier work.
Setting [4] is: Group B, intravenous, 1.37 mg/kg.

With `O=C([O-])CN(CCN(CC(=O)[O-])CC(=O)[O-])CC(=O)[O-].[Ca+2].[Na+].[Na+]` [CaNa2EDTA, calcium disodium ethylenediaminetetraacetate], the “passage of drug through the artificial cell membrane (PAMPA)” value in data set [1] is “completely negative”. For the same compound, the Halflife in data set [2] (setting [4]) is 1.50 h; in data set [2] (Group C, rectal suppository, 213.5 mg/kg, terminal elimination phase not observed, calculation interpolated), 8.20^1 Hour. In addition, the Tmax in data set [2] (setting [4]) amounted to 4.98 min; in data set [2] (Group C, rectal suppository, 213.5 mg/kg), 25 min. Moreover, the “drug absorbed within eight hours” value in data set [2] (suppository with MBK as the excipient) was “over 36.3%”. In “in vivo”, this compound had a bioavailability at 8 hours of 36.3%. The AUC in “in vivo” (213.5 mg/kg) was 106000 ng·h/mL; in the data set “in vivo” (iv, 1.37 mg/kg), 1860 ng·h/mL. Also, the AUC(0-inf) was found to be 307000 ng·h/mL in “in vivo” (213.5 mg/kg) and 1910 ng·h/mL in the data set “in vivo” (iv, 1.37 mg/kg). The Cmax in “in vivo” (213.5 mg/kg) was 30600 ng/mL; in “in vivo” (iv, 1.37 mg/kg), 2070 ng/mL.

For `O=C(O)CN(CCN(CC(=O)O)CC(=O)O)CC(=O)O` [EDTA], the absorption in data set [3] was roughly 13%.
